Results reported in ChEMBL document CHEMBL1201862, “PubChem BioAssay data set” (2004).
Active and inactive are the calls of the source.

Assays:
Interleukin-8 [1] = biological target: T1, Interleukin-8 (Homo sapiens, UniProt P10145); assay: Dose Response confirmation of uHTS small molecule hits for cystic fibrosis induced NFkb Inhibitors in a TNFa-induced IL8 counterscreen.; assay type: functional; details: read-out: IC50_Mean
T1 sequence (P10145 whole entry): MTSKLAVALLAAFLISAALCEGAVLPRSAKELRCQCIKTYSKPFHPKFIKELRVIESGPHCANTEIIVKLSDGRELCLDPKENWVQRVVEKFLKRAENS

Interleukin-8 [2] = biological target: T1, Interleukin-8; assay: Dose Response confirmation of uHTS small molecule hits for cystic fibrosis induced NFkb Inhibitors in a PAF-induced IL8 counterscreen.; assay type: functional; details: read-out: IC50_Mean
[3] = biological target: Adenosylmethionine-8-amino-7-oxononanoate aminotransferase (Mycobacterium tuberculosis, UniProt P9WQ81); assay: Mycobacterium tuberculosis BioA enzyme inhibitor Measured in Biochemical System Using Plate Reader - 2163-02_Inhibitor_Dose_CherryPick_Activity.; assay type: functional, Mycobacterium tuberculosis UT205
Sequence of Adenosylmethionine-8-amino-7-oxononanoate aminotransferase (P9WQ81 whole entry): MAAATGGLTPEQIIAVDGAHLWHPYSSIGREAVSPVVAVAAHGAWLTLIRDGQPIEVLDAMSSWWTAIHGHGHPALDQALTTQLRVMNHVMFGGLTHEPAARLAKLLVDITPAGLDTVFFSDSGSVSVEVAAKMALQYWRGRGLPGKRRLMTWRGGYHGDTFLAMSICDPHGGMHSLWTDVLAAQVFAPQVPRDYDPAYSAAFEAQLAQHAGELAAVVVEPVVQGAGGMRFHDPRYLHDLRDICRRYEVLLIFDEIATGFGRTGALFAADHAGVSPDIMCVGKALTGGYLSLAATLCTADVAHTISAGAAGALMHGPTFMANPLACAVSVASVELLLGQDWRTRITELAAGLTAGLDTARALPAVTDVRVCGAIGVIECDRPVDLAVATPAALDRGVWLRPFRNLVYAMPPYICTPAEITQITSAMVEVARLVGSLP

[4] = biological target: T2, Heat shock factor protein 1 (Mus musculus, UniProt P38532); assay: inhibition of MG132-induced HSE-luciferase signal, confirmation, cell-based, NIH3T3, luminescence, dose retest (AID 2382); assay type: functional;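 further: NIH3T3 fibroblasts with HSF1-driven luciferase reporter stressed by proteasome inhibitor MG132; luminescence from HSF1-driven luciferase expression after 8 hours of MG132 stress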
T2 sequence (P38532 whole entry): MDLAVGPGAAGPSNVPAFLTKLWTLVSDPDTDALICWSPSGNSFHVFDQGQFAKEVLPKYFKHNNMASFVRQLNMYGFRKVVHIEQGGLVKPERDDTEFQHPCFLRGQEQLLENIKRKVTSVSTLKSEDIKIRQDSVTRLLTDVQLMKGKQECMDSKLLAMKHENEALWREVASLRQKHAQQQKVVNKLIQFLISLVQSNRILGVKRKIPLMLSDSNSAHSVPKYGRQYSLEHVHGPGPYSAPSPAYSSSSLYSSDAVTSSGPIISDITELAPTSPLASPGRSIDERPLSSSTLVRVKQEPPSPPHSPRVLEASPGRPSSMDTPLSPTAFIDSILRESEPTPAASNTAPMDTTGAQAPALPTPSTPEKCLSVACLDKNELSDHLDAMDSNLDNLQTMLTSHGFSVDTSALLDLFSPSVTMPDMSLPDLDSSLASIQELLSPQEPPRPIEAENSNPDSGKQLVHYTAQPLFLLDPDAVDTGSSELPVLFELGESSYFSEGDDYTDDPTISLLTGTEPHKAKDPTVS

[5] = biological target: Ras and Rab interactor 1/Tyrosine-protein kinase ABL1 (Homo sapiens, UniProt P00519+Q13671); assay type: functional;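 further: biochemical TR-FRET dose-response test measuring inhibition of binding between Rin1 and Abl proteins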
[6] = CRF-BP/CRF-R2 complex antagonists, dose response, cell-based, uHTS hits, 384-well (AID 651639); assay type: functional, Homo sapiens; details: read-out: IC50_Mean
[7] = biological target: T3, Corticotropin-releasing factor receptor 2/Corticotropin-releasing factor-binding protein (Homo sapiens, UniProt P24387+Q13324); assay: activators of CRF receptor 2 with binding protein – uHTS hits, confirmation (AID 602473); assay type: functional; details: read-out: EC50_Mean
T3 sequence (Q13324 whole entry): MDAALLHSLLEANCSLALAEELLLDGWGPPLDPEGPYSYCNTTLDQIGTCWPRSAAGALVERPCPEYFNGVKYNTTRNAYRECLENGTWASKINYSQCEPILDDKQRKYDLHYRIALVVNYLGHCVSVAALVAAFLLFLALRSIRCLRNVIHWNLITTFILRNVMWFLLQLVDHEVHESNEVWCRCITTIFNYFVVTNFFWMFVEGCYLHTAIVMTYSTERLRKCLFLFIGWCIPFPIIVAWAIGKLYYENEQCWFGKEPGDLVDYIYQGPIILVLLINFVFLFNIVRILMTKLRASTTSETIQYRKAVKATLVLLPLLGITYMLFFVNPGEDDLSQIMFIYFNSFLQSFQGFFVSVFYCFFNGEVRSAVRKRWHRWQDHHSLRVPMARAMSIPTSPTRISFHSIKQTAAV
T3 sequence (P24387 whole entry): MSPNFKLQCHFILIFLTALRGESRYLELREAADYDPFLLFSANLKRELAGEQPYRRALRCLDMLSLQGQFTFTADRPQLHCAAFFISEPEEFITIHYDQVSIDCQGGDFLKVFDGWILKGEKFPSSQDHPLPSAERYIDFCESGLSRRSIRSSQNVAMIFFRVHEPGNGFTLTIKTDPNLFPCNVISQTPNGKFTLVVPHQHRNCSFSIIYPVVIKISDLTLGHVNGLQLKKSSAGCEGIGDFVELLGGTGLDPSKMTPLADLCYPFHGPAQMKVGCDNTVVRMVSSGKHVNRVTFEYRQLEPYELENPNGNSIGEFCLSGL

[8] = biological target: T3, Corticotropin-releasing factor receptor 2/Corticotropin-releasing factor-binding protein; assay: Dose Response confirmation of uHTS hits for small molecule antagonists of the CRF-binding protein and CRF-R2 receptor complex.; assay type: functional; details: read-out: IC50_Mean
[9] = Luminescence Cell-Based Dose Retest to Confirm Inhibitors of Cancer Stem Cells. [Related pubchem assays (depositor defined):AID2717, AID2721]; assay type: functional; details: Homo sapiens
[10] = HeLa cell cytotoxicity, dose response, cytotoxicity control for MgcRacGAP inhibitor project (AID 624300); assay type: functional
[11] = biological target: T4, High affinity choline transporter 1 (Homo sapiens, UniProt Q9GZV3); assay: CHT inhibitors, dose response, cell-based, 5-point CRC, membrane potential dye (AID 504840); assay type: functional
T4 sequence (Q9GZV3 whole entry): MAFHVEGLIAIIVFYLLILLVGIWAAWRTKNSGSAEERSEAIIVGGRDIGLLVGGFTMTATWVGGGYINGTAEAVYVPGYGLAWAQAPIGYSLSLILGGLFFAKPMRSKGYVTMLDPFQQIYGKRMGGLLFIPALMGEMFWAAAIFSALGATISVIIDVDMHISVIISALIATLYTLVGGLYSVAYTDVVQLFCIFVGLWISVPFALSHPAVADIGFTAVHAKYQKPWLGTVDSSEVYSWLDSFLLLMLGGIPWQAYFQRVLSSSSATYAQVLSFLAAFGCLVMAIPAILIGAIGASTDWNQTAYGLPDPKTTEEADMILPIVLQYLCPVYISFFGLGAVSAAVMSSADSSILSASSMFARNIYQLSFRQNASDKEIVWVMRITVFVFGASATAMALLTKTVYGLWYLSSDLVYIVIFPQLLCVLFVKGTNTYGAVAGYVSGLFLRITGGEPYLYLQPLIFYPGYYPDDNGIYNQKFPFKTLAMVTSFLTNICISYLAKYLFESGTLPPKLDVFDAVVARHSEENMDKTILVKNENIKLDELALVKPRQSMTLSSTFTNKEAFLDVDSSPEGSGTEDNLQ

[12] = inhibitors of intracellular T. cruzi replication, confirmation, NIH3T3 host cells, beta-gal luminescence (AID 2044); assay type: functional, cell-based;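 further: intracellular parasites grown in NIH/3T3 mouse fibroblasts as host cells; luminescent beta-galactosidase reporter signal from transgenic T. cruzi replicating inside host cells; inhibitors lower the luminescence signal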
[13] = biological target: T5, Rac GTPase-activating protein 1 (Homo sapiens, UniProt Q9H0H5); assay: MgcRacGAP GTPase-activating activity inhibitors, confirmation, biochemical, ADP Hunter fluorescence, primary and confirmatory (AID 624330); assay type: functional
T5 sequence (Q9H0H5 whole entry): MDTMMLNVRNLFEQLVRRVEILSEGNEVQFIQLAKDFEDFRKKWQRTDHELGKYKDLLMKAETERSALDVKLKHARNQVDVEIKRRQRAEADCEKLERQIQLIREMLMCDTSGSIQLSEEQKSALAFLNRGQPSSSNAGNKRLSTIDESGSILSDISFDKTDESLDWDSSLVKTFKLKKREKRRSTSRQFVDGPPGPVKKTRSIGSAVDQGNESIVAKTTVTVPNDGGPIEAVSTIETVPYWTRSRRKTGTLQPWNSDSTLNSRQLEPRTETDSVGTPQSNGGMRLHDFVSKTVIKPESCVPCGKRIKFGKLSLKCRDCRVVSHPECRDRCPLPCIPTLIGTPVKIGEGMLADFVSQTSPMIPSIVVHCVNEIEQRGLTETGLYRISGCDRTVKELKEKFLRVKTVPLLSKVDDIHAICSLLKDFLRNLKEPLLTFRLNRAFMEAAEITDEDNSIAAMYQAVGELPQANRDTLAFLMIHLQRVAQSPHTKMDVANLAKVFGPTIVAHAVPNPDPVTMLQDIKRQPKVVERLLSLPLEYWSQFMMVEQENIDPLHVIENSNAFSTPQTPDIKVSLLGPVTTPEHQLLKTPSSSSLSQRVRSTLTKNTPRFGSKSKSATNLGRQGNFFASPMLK

[14] = cytotoxicity toward NIH3T3 fibroblasts, dose response, counter-screen, cell-based, ATP luminescence, mouse fibroblasts (AID 2010); assay type: functional;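 further: cells exposed to compound for about 90 hours before reading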
[15] = biological target: Tyrosine-protein phosphatase non-receptor type 5 (Homo sapiens, UniProt P54829); assay: STEP phosphatase inhibitors, confirmation, biochemical, fluorescence intensity, uHTS hits (AID 602372); assay type: functional; details: read-out: IC50_Mean
Sequence of Tyrosine-protein phosphatase non-receptor type 5 (P54829 whole entry): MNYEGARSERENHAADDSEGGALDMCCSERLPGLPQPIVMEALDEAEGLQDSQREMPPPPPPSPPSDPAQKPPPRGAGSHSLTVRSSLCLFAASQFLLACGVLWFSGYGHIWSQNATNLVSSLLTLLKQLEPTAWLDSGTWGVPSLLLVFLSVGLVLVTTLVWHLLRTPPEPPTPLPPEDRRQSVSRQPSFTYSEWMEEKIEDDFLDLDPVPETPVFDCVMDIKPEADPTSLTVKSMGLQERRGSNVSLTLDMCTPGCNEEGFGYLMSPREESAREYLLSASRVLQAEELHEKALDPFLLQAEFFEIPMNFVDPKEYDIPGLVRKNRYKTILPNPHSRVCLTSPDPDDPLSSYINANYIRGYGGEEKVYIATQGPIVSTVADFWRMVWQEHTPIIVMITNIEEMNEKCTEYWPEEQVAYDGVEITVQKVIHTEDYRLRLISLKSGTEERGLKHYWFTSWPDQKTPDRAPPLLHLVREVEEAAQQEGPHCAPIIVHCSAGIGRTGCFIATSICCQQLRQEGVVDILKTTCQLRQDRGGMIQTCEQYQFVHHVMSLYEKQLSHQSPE

[16] = biological target: Tyrosine-protein phosphatase non-receptor type 11 (Homo sapiens, UniProt Q06124); assay: SHP2 phosphatase inhibition, dose response, selectivity assay for STEP inhibitor project, biochemical (AID 602367); assay type: functional; details: read-out: IC50_Mean
Sequence of Tyrosine-protein phosphatase non-receptor type 11 (Q06124 whole entry): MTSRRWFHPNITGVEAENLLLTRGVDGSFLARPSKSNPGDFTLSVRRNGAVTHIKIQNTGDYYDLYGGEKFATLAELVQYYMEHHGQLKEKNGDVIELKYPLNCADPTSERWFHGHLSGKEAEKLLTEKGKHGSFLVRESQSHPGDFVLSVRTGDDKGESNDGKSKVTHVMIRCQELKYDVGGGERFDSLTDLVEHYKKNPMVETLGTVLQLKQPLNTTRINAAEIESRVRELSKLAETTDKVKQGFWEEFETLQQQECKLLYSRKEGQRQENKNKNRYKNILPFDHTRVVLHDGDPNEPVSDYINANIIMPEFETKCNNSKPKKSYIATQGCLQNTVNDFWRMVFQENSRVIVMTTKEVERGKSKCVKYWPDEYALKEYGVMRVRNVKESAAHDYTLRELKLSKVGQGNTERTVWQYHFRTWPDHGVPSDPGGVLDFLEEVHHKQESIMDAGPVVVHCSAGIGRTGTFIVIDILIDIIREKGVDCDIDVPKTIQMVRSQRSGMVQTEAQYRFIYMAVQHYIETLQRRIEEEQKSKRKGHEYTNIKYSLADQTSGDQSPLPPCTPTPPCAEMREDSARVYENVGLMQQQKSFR

[17] = biological target: Dual specificity protein phosphatase 3 (Homo sapiens, UniProt P51452); assay: VHR phosphatase inhibition, dose response, selectivity assay for STEP inhibitor project, biochemical (AID 602374); assay type: functional; details: read-out: IC50_Mean
Sequence of Dual specificity protein phosphatase 3 (P51452 whole entry): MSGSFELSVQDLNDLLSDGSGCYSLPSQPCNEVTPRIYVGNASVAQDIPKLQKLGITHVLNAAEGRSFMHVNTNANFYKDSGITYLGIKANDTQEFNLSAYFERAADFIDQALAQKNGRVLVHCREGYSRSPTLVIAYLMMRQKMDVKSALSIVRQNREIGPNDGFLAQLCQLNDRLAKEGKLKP

[18] = biological target: Broad substrate specificity ATP-binding cassette transporter ABCG2 (Homo sapiens, UniProt Q9UNQ0); assay: ABCG2 efflux pump inhibitors, dose response, Ig-MXP3 cells, flow cytometry (AID 1690); assay type: functional
Sequence of Broad substrate specificity ATP-binding cassette transporter ABCG2 (Q9UNQ0 whole entry): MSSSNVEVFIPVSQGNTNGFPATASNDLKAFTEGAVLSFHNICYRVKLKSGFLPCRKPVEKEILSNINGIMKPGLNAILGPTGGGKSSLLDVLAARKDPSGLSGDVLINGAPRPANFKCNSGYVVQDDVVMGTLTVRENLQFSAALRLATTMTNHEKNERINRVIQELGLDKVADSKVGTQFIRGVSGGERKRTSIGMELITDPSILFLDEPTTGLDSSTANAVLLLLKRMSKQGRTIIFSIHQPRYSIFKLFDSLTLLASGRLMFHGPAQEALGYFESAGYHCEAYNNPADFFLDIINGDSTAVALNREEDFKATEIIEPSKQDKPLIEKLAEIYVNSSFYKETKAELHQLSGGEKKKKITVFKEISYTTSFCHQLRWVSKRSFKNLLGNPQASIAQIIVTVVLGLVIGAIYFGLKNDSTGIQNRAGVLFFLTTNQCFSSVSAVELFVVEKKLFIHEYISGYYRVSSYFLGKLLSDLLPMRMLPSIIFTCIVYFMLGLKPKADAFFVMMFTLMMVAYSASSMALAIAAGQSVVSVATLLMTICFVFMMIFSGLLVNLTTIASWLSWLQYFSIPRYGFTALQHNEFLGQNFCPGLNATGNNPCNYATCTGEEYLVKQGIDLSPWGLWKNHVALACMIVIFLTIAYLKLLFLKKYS

[19] = biological target: ATP-dependent translocase ABCB1 (Homo sapiens, UniProt P08183); assay: ABCB1 efflux pump inhibitor potency, dose response, Jurkat-DNR cells, JC-1, flow cytometry (AID 1689); assay type: functional
Sequence of ATP-dependent translocase ABCB1 (P08183 whole entry): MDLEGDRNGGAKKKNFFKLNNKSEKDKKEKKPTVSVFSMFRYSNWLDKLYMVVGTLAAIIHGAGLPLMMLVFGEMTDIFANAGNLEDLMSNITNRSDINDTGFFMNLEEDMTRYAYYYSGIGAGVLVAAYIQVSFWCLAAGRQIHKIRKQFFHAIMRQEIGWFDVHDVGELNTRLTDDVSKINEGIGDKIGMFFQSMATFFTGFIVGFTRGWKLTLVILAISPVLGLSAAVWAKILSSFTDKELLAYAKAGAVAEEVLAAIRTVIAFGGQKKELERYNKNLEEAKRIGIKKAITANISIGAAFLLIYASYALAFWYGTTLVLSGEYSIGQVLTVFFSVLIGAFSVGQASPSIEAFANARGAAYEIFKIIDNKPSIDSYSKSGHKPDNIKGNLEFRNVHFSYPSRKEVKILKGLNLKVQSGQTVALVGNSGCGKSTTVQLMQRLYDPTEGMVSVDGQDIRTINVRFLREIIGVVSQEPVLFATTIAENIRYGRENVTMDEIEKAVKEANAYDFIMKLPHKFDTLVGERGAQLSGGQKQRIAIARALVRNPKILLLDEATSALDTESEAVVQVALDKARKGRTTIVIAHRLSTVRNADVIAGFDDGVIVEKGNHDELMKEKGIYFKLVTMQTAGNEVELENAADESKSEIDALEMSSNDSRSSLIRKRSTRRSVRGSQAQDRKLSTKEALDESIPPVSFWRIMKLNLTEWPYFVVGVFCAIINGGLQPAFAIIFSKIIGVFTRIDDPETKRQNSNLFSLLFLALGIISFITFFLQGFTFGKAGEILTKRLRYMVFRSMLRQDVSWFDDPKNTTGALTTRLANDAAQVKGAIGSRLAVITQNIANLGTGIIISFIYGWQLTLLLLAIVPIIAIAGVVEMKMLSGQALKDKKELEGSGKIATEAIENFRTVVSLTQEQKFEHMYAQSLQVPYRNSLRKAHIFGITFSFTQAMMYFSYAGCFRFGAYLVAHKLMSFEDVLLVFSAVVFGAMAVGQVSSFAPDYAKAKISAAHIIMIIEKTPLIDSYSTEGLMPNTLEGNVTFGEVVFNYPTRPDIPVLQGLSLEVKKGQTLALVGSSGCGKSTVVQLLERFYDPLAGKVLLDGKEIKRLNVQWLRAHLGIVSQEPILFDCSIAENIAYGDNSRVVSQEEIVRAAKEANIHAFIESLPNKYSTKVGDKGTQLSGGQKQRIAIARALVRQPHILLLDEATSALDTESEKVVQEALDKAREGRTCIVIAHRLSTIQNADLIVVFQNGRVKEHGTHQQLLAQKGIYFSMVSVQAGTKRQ

[20] = biological target: T2, Heat shock factor protein 1; assay: HSF1 potentiators in luciferase reporter cells, confirmation, cell-based, NIH3T3, luminescence, dose retest (AID 435004); assay type: functional;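 further: stress induced by proteasome inhibitor MG132 added 30 min after compound; luciferase reporter driven by HSF1 response element in NIH3T3 cells; actives raise luminescence as potentiators of the MG132 stress response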
[21] = biological target: T6, Calpain-2 catalytic subunit (Sus scrofa, UniProt P43367); assay: pig calpain II inhibitor potency, dose response, biochemical, fluorogenic peptide substrate (AID 1420); assay type: functional
T6 sequence (P43367 whole entry): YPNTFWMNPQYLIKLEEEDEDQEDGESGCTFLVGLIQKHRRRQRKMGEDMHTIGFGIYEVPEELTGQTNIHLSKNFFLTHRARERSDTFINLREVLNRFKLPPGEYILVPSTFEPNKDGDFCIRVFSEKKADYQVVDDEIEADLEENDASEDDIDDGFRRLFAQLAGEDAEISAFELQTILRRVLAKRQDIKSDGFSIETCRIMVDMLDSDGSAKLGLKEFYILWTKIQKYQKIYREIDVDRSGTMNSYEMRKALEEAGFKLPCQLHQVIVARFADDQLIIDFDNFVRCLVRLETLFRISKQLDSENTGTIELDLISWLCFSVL

[22] = biological target: Mitochondrial peptide methionine sulfoxide reductase (Bos taurus, UniProt P54149); assay type: functional;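 further: absorbance read-out, biochemical high-throughput dose-response screen for MsrA inhibitors, confirmatory; recombinant bovine MsrA coupled to E. coli TrxB with NADPH and selenocystamine; potency is for inhibitors of MsrA activity on DMSO substrate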
Sequence of Mitochondrial peptide methionine sulfoxide reductase (P54149 whole entry): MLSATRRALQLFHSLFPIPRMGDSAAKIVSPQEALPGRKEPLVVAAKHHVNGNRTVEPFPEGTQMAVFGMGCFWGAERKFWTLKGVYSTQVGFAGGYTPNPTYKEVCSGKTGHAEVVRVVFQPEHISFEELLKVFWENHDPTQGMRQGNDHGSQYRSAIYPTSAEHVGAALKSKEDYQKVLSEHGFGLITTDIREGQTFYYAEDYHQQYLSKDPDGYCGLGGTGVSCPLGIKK

## CCn1c(Oc2ccccc2F)nc2c1c(=O)n(C)c(=O)n2C
Interleukin-8 [1]
  IC50: 4.08 µM (active)
Interleukin-8 [2]
  IC50: 21 µM (inactive)

## COCCN1C(=O)c2ccc(C(=O)Nc3cccnc3)cc2C1=O
[3]
  AC50: 4.26 µM (active)

## CCCn1c2ccccc2c2nnc(SCc3[nH]c(O)nc3C(=O)CCCCC(=O)OCC)nc21
[4]
  EC50: > 195 µM (not active)
[5]
  IC50: 3.23 µM (active)

## CC(=O)c1cccc(NC(=O)Nc2cccnc2)c1
Interleukin-8 [1]
  IC50: 43.8 µM (inactive)
Interleukin-8 [2]
  IC50: 45.7 µM (inactive)

## Cc1ccc(CSCC(=O)Nc2cc(S(=O)(=O)N3CCOCC3)ccc2OC(C)C)cc1
[6]
  IC50: > 20 µM (inactive)
[7]
  EC50: > 53 µM (inactive)
[8]
  IC50: < 0.368 µM (active)

## CCOCCCNC(=O)/C(C#N)=C/c1ccc([N+](=O)[O-])o1
[9]
  AC50: 5.62 µM (active)
[10]
  CC50: 96.6 µM (active)
[11]
  IC50: 4.79 µM (active)
[12]
  EC50: 3.08 µM (active)
[13]
  IC50: 149 µM (active)
[14]
  EC50: 4.2 µM (active)

## Cc1ccc(-c2nc3ncccc3o2)cc1NC(=O)CC(C)C
[15]
  IC50: > 80 µM (inactive)
[16]
  IC50: > 80 µM (inactive)
[17]
  IC50: > 80 µM (inactive)

## Cc1cc(C(=O)N2CCN(c3ccc([N+](=O)[O-])cc3)CC2)co1
[6]
  IC50: > 20 µM (inactive)
[7]
  EC50: > 53 µM (inactive)
[8]
  IC50: 36.1 µM (active)

## Cc1cc(C)n(-c2ccc(Cl)c(C(=O)Nc3cc(C(F)(F)F)ccc3Cl)n2)n1
[18]
  EC50: 0.24 µM (inactive)
[19]
  EC50: 5.21 µM (inactive)

## COc1cc2nc(S)nc(NCCc3ccc(S(N)(=O)=O)cc3)c2cc1OC
[10]
  CC50: 100 µM (active)

## CCN(/N=C/C=C/c1ccccc1)c1cc(=O)n(C)c(=O)[nH]1
[20]
  EC50: > 260 µM (inactive)
[21]
  IC50: 13.1 µM (not active)
[22]
  IC50: 155 µM (inactive)

## Sc1nnc(C2CCCCC2)n1/N=C/c1ccccc1Cl
[22]
  IC50: 155 µM (inactive)
